From patent publication US8377884B2, “Variants of C-type natriuretic peptides” (Biomarin Pharmaceutical Inc., priority 2007, dated 2013)
Bridge positions count the residues as written; N and C are the ends. Peptide text beside a SMILES is read from it.

How the values were obtained:
NPR-B = target: T1, NPR-B (Mus musculus, UniProt Q6VVW5); assay: Stimulation of cGMP production in NIH3T3 cells; format: cell-based, Murine; conditions: NIH3T3 cells, normalized to cell number and cGMP production with 1 uM wtCNP22; for cGMP response relative to 1 uM CNP22 (%) at 0.01 µM: read-out: cGMP Response rel. to 1 uM CNP22, 10 nM; for cGMP response relative to 1 uM CNP22 (%) at 1 µM: read-out: cGMP Response rel. to 1 uM CNP22, 1 uM
T1 construct: Murine NIH3T3 cells express endogenously the CNP signaling receptor, NPR-B; endogenous in cells; host or cells: NIH3T3 (murine fibroblasts)
T1 sequence (Q6VVW5 17-1047): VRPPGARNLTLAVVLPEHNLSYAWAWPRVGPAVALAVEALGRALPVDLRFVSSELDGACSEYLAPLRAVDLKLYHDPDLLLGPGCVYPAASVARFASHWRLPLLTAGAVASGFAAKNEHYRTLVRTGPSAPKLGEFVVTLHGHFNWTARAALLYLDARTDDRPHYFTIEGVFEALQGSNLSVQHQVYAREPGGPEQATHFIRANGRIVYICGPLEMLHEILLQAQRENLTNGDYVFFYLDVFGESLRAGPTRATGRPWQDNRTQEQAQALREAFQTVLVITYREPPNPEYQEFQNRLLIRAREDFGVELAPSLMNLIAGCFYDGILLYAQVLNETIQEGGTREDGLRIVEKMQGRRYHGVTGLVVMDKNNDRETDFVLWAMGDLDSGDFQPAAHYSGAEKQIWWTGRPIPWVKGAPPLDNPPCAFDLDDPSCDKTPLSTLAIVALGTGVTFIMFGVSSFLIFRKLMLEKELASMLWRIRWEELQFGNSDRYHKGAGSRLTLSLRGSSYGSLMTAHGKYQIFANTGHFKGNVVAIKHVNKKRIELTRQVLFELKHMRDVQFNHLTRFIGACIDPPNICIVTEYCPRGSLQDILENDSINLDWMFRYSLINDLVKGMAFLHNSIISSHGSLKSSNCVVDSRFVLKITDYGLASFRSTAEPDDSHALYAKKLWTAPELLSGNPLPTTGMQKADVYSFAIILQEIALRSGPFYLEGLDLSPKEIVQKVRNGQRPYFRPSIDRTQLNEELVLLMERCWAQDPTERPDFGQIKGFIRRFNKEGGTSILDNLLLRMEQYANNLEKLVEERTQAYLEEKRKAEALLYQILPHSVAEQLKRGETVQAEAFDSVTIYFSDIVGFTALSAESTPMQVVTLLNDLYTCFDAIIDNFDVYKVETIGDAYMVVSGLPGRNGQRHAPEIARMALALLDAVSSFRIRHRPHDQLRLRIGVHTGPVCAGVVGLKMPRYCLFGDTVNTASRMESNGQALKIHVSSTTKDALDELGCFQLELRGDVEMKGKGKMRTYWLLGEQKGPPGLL

[1] = target: neutral endopeptidase (NEP) (Homo sapiens, UniProt P08473); assay: in vitro; conditions: human, pH 7
Chain of neutral endopeptidase (NEP) (P08473 whole entry): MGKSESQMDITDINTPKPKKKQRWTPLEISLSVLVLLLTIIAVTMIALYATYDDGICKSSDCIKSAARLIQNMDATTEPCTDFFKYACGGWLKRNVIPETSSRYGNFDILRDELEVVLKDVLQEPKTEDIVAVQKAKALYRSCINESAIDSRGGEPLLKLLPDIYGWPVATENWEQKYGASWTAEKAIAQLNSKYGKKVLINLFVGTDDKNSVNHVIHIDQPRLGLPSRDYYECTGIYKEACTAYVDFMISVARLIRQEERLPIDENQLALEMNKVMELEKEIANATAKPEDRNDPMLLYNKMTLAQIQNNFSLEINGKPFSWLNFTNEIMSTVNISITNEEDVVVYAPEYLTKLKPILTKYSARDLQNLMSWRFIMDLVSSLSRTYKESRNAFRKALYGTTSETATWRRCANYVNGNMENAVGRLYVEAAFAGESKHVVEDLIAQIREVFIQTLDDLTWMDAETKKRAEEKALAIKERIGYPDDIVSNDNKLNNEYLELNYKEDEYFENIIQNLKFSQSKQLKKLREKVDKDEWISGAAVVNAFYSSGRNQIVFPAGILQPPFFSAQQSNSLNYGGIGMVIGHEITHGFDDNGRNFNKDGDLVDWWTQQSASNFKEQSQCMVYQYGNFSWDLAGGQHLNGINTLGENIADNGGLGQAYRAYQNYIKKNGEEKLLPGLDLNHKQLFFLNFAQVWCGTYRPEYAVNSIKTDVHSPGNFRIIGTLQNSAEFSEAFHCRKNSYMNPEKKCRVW
Description: To determine the effects of amino acid substitutions, amino acid extensions, backbone modifications, side chain modifications and PEGylation on the susceptibility of CNP variants to neutral endopeptidase (NEP) cleavage, peptide cleavage assays were carried out using an in vitro assay that monitored disappearance of the non-cleaved CNP variant.
Recombinant human NEP (1 ug/mL final concentration) was added to 100 uM CNP variant diluted in 0.1 M Tris, pH 7. The reaction mixture was incubated at 37° C. for various periods of time, and the reaction was quenched with EDTA (10 mM final) followed by heat denaturation. The reaction mixture was reduced and then the reaction products were analyzed using HPLC and mass spectroscopy. The half-life of the CNP variant was calculated based on the disappearance of intact CNP variant over time.

Row | cGMP response relative to 1 uM CNP22 (%) at 0.01 µM (NPR-B; 10 nM natriuretic peptide) [%] | cGMP response relative to 1 uM CNP22 (%) at 1 µM (NPR-B; 1 uM natriuretic peptide) [%] | half-life at 100 uM [1] [h] | cGMP Response rel. to 1 uM CNP22, 10 nM (NPR-B; 10 nM natriuretic peptide) | cGMP Response rel. to 1 uM CNP22, 1 uM (NPR-B; 1 uM natriuretic peptide) | half-life at 100 uM ([1]; recombinant human neutral endopeptidase (NEP)) [h] | SMILES
1 | 19 | 61 | > 2.67 | – | – | – | CC[C@H](C)[C@@H]1NC(=O)[C@H](CCCNC(=N)N)NC(=O)[C@H](CC(=O)O)NC(=O)[C@H](CC(C)C)NC(=O)[C@H](CCCCN)NC(=O)[C@H](CC(C)C)NC(=O)CNC(=O)[C@H](Cc2ccccc2)NC(=O)[C@@H](NC(=O)CNC(=O)[C@H](CCCCN)NC(=O)[C@H](CO)NC(=O)[C@H](CC(C)C)NC(=O)CNC(=O)[C@H](CCCCN)NC(=O)[C@@H]2CCCN2C(=O)[C@H](CC(N)=O)NC(=O)[C@H](C)NC(=O)CNC(=O)[C@H](CCCCN)NC(=O)[C@H](Cc2ccc(O)cc2)NC(=O)[C@H](CCCCN)NC(=O)[C@H](CCCNC(=N)N)NC(=O)[C@H](C)NC(=O)[C@H](CC(N)=O)NC(=O)[C@@H]2CCCN2C(=O)[C@H](Cc2c[nH]cn2)NC(=O)[C@H](CCC(=O)O)NC(=O)[C@H](CCC(N)=O)NC(=O)CN)CSSC[C@@H](C(=O)O)NC(=O)CNC(=O)[C@H](CC(C)C)NC(=O)CNC(=O)[C@H](CO)NC(=O)[C@H](CCSC)NC(=O)[C@H](CO)NC(=O)CNC1=O [CS] (H-GQEHPNARKYKGANPKGLSKGCFGLKLDRIGSMSGLGC-OH; disulfide 22-38 (inferred); N-terminus and C-terminus assumed)
2 | – | – | > 2.67 | 43 ± 15 | 97 ± 27 | – | CC[C@H](C)[C@@H]1NC(=O)[C@H](CCCNC(=N)N)NC(=O)[C@H](CC(=O)O)NC(=O)[C@H](CC(C)C)NC(=O)[C@H](CCCCN)NC(=O)[C@H](CC(C)C)NC(=O)CNC(=O)[C@H](Cc2ccccc2)NC(=O)[C@@H](NC(=O)CNC(=O)[C@H](CCCCN)NC(=O)[C@H](CO)NC(=O)[C@H](CC(C)C)NC(=O)CNC(=O)[C@H](CCCCN)NC(=O)[C@H](CCCCN)NC(=O)[C@H](CC(N)=O)NC(=O)[C@H](C)NC(=O)CNC(=O)[C@H](CCCCN)NC(=O)[C@H](Cc2ccc(O)cc2)NC(=O)[C@H](CCCCN)NC(=O)[C@H](CCCNC(=N)N)NC(=O)[C@H](C)NC(=O)[C@H](CC(N)=O)NC(=O)[C@@H]2CCCN2C(=O)[C@H](Cc2c[nH]cn2)NC(=O)[C@H](CCC(=O)O)NC(=O)[C@@H](N)CCC(N)=O)CSSC[C@@H](C(=O)O)NC(=O)CNC(=O)[C@H](CC(C)C)NC(=O)CNC(=O)[C@H](CO)NC(=O)[C@H](CCSC)NC(=O)[C@H](CO)NC(=O)CNC1=O [BL]
3 | 11 ± 2 | 66 ± 16 | – | – | – | 1.33 | CC[C@H](C)[C@@H]1NC(=O)[C@H](CCCNC(=N)N)NC(=O)[C@H](CC(=O)O)NC(=O)[C@H](CC(C)C)NC(=O)[C@H](CCCCN)NC(=O)[C@H](CC(C)C)NC(=O)[C@H]([C@@H](C)O)NC(=O)[C@H](Cc2ccccc2)NC(=O)[C@@H](NC(=O)CNC(=O)[C@H](CCCNC(=N)N)NC(=O)[C@H](CO)NC(=O)[C@H](CC(C)C)NC(=O)CN)CSSC[C@@H](C(=O)O)NC(=O)CNC(=O)[C@H](CC(C)C)NC(=O)CNC(=O)[C@H](CO)NC(=O)[C@H](CCSC)NC(=O)[C@H](CO)NC(=O)CNC1=O [AC] (H-GLSRGCFTLKLDRIGSMSGLGC-OH; disulfide 6-22 (inferred); N-terminus and C-terminus assumed)

Row | SMILES | cGMP response relative to 1 uM CNP22 (%) at 0.01 µM (NPR-B; 10 nM natriuretic peptide) [%] | cGMP response relative to 1 uM CNP22 (%) at 1 µM (NPR-B; 1 uM natriuretic peptide) [%] | half-life at 100 uM [1] [h] | cGMP Response rel. to 1 uM CNP22, 10 nM (NPR-B; 10 nM natriuretic peptide) | cGMP Response rel. to 1 uM CNP22, 1 uM (NPR-B; 1 uM natriuretic peptide) | half-life at 100 uM ([1]; recombinant human neutral endopeptidase (NEP)) [h]
4 | CC[C@H](C)[C@@H]1NC(=O)[C@H](CCCNC(=N)N)NC(=O)[C@H](CC(=O)O)NC(=O)[C@H](CC(C)C)NC(=O)[C@H](CCCCN)NC(=O)[C@H](CC(C)C)NC(=O)CNC(=O)[C@H](Cc2ccccc2)NC(=O)[C@@H](NC(=O)CNC(=O)[C@H](CCCCN)NC(=O)[C@H](CO)NC(=O)[C@H](CC(C)C)NC(=O)CNC(=O)CCOCCOCCOCCOCCOCCOCCOCCOCCOCCOCCOCCOC)CSSC[C@@H](C(=O)O)NC(=O)CNC(=O)[C@H](CC(C)C)NC(=O)CNC(=O)[C@H](CO)NC(=O)[C@H](CCSC)NC(=O)[C@H](CO)NC(=O)CNC1=O [PEO12-CNP22] | 12 ± 7 | 57 ± 18 | ≥ 2.67 | – | – | –
